# ChEMBL document CHEMBL2375284, “Novel hybrids of natural isochroman-4-one bearing N-substituted isopropanolamine as potential antihypertensive candidates” (Bioorg Med Chem, 2013)
# Tests used:
# Rattus norvegicus [1] = test: Toxicity in rat spontaneous hypertensive model assessed as heart rate at 20 mg/kg, po measured at 0.5 hrs by tail-cuff method (reference value: 406.5 +/- 13.15 bpm); type: organism-based; set-up: dose 20 mg/kg, route oral; conditions: in vivo
# Rattus norvegicus [2] = test: Antihypertensive activity in rat spontaneous hypertensive model assessed as diastolic arterial blood pressure at 20 mg/kg, po measured at 2 hrs by tail-cuff method (reference value: 142.9 +/- 18.07 mmHg); type: functional, Artery
# Rattus norvegicus [3] = test: Antihypertensive activity in rat spontaneous hypertensive model assessed as diastolic arterial blood pressure at 20 mg/kg, po measured at 8 hrs by tail-cuff method (reference value: 135.3 +/- 8.21 mmHg); type: functional, Artery
# Rattus norvegicus [4] = test: Antihypertensive activity in rat spontaneous hypertensive model assessed as mean arterial blood pressure at 20 mg/kg, po measured at 6 hrs by tail-cuff method (reference value: 155.8 +/- 7.97 mmHg); type: functional, Artery
# Rattus norvegicus [5] = test: Antihypertensive activity in rat spontaneous hypertensive model assessed as diastolic arterial blood pressure at 20 mg/kg, po measured at 1 hr by tail-cuff method (reference value: 146.2 +/- 13.19 mmHg); type: functional, Artery
# Rattus norvegicus [6] = test: Antihypertensive activity in rat spontaneous hypertensive model assessed as diastolic arterial blood pressure at 20 mg/kg, po measured at 6 hrs by tail-cuff method (reference value: 141.2 +/- 7.34 mmHg); type: functional, Artery
# Rattus norvegicus [7] = test: Antihypertensive activity in rat spontaneous hypertensive model assessed as systolic arterial blood pressure at 20 mg/kg, po measured at 1 hr by tail-cuff method (reference value: 181.2 +/- 16.37 mmHg); type: functional, Artery
# Rattus norvegicus [8] = test: Antihypertensive activity in rat spontaneous hypertensive model assessed as systolic arterial blood pressure at 20 mg/kg, po measured at 8 hrs by tail-cuff method (reference value: 174 +/- 12.1 mmHg); type: functional, Artery
# Rattus norvegicus [9] = test: Antihypertensive activity in rat spontaneous hypertensive model assessed as systolic arterial blood pressure at 20 mg/kg, po measured at 2 hrs by tail-cuff method (reference value: 172.6 +/- 17.3 mmHg); type: functional, Artery
# Rattus norvegicus [10] = test: Antihypertensive activity in rat spontaneous hypertensive model assessed as mean arterial blood pressure at 20 mg/kg, po measured at 0.5 hrs by tail-cuff method (reference value: 156.2 +/- 7.21 mmHg); type: functional, Artery
# Rattus norvegicus [11] = test: Toxicity in rat spontaneous hypertensive model assessed as heart rate at 20 mg/kg, po measured at 4 hrs by tail-cuff method (reference value: 403.1 +/- 15.92 bpm); type: organism-based; set-up: dose 20 mg/kg, route oral; conditions: in vivo
# Rattus norvegicus [12] = test: Antihypertensive activity in rat spontaneous hypertensive model assessed as diastolic arterial blood pressure at 20 mg/kg, po measured at 0.5 hrs by tail-cuff method (reference value: 138.7 +/- 9.2 mmHg); type: functional, Artery
# Rattus norvegicus [13] = test: Toxicity in rat spontaneous hypertensive model assessed as heart rate at 20 mg/kg, po measured at 1 hr by tail-cuff method (reference value: 403.9 +/- 12.41 bpm); type: organism-based; set-up: dose 20 mg/kg, route oral; conditions: in vivo
# Rattus norvegicus [14] = test: Antihypertensive activity in rat spontaneous hypertensive model assessed as systolic arterial blood pressure at 20 mg/kg, po measured at 6 hrs by tail-cuff method (reference value: 176.7 +/- 15.21 mmHg); type: functional, Artery
# Rattus norvegicus [15] = test: Antihypertensive activity in rat spontaneous hypertensive model assessed as mean arterial blood pressure at 20 mg/kg, po measured at 2 hrs by tail-cuff method (reference value: 157.41 +/- 9.62 mmHg); type: functional, Artery
# Rattus norvegicus [16] = test: Antihypertensive activity in rat spontaneous hypertensive model assessed as mean arterial blood pressure at 20 mg/kg, po measured at 8 hrs by tail-cuff method (reference value: 155.8 +/- 11.54 mmHg); type: functional, Artery
# Rattus norvegicus [17] = test: Antihypertensive activity in rat spontaneous hypertensive model assessed as mean arterial blood pressure at 20 mg/kg, po measured at 1 hr by tail-cuff method (reference value: 158.9 +/- 13.65 mmHg); type: functional, Artery
# Rattus norvegicus [18] = test: Antihypertensive activity in rat spontaneous hypertensive model assessed as diastolic arterial blood pressure at 20 mg/kg, po measured at 4 hrs by tail-cuff method (reference value: 141.4 +/- 7.11 mmHg); type: functional, Artery
# Rattus norvegicus [19] = test: Toxicity in rat spontaneous hypertensive model assessed as heart rate at 20 mg/kg, po measured at 2 hrs by tail-cuff method (reference value: 399.5 +/- 19.68 bpm); type: organism-based; set-up: dose 20 mg/kg, route oral; conditions: in vivo
# Rattus norvegicus [20] = test: Antihypertensive activity in rat spontaneous hypertensive model assessed as systolic arterial blood pressure at 20 mg/kg, po measured at 4 hrs by tail-cuff method (reference value: 172.9 +/- 10.21 mmHg); type: functional, Artery
# Rattus norvegicus [21] = test: Toxicity in rat spontaneous hypertensive model assessed as heart rate at 20 mg/kg, po measured at 8 hrs by tail-cuff method (reference value: 397.2 +/- 24.87 bpm); type: organism-based; set-up: dose 20 mg/kg, route oral; conditions: in vivo
# Rattus norvegicus [22] = test: Antihypertensive activity in rat spontaneous hypertensive model assessed as mean arterial blood pressure at 20 mg/kg, po measured at 4 hrs by tail-cuff method (reference value: 154.4 +/- 20.1 mmHg); type: functional, Artery
# Rattus norvegicus [23] = test: Toxicity in rat spontaneous hypertensive model assessed as heart rate at 20 mg/kg, po measured at 6 hrs by tail-cuff method (reference value: 405.1 +/- 24 bpm); type: organism-based; set-up: dose 20 mg/kg, route oral; conditions: in vivo
# Rattus norvegicus [24] = test: Antihypertensive activity in rat spontaneous hypertensive model assessed as systolic arterial blood pressure at 20 mg/kg, po measured at 0.5 hrs by tail-cuff method (reference value: 178.5 +/- 10.13 mmHg); type: functional, Artery
structure (smiles),measurement,setting,value
CC(C)NCC(O)COc1cccc2ccccc12 (centres undefined) [PROPRANOLOL],Activity,Rattus norvegicus [1],340 bpm
same,Activity,Rattus norvegicus [2],94.1 mmHg
same,Activity,Rattus norvegicus [3],116.9 mmHg
same,Activity,Rattus norvegicus [4],120.9 mmHg
same,Activity,Rattus norvegicus [5],105.5 mmHg
same,Activity,Rattus norvegicus [6],100.3 mmHg
same,Activity,Rattus norvegicus [7],156.8 mmHg
same,Activity,Rattus norvegicus [8],163.9 mmHg
same,Activity,Rattus norvegicus [9],160.6 mmHg
same,Activity,Rattus norvegicus [10],145 mmHg
same,Activity,Rattus norvegicus [11],349.6 bpm
same,Activity,Rattus norvegicus [12],127.2 mmHg
same,Activity,Rattus norvegicus [13],339.9 bpm
same,Activity,Rattus norvegicus [14],161 mmHg
same,Activity,Rattus norvegicus [15],116.8 mmHg
same,Activity,Rattus norvegicus [16],132.6 mmHg
same,Activity,Rattus norvegicus [17],122.6 mmHg
same,Activity,Rattus norvegicus [18],88.3 mmHg
same,Activity,Rattus norvegicus [19],350.6 bpm
same,Activity,Rattus norvegicus [20],158.4 mmHg
same,Activity,Rattus norvegicus [21],362.3 bpm
same,Activity,Rattus norvegicus [22],108.3 mmHg
same,Activity,Rattus norvegicus [23],360.1 bpm
same,Activity,Rattus norvegicus [24],168.7 mmHg
